Results as given in PMC10326281, “Insights into the mechanisms governing P01 scorpion toxin effect against U87 glioblastoma cells oncogenesis” (Frontiers in Pharmacology, 2023).
In brackets after ≈: the same amount, converted by molar mass. Where a SMILES comes first, the peptide text is derived from it. Bridges are numbered along the chain shown (N, C = ends).

Key:
U87 glioblastoma cells [1] = assay: Cell viability (MTT), U87; format: cell-based, human; settings: 25–200 μg/mL, 24 h, 10,000 cells per well, n = 3
Source text: (§1) The ATCC (American Type Culture Collection, Rockville, MD, United States) cancer cell lines U87 (glioblastoma), MDA-MB231 (breast cancer) and LS174 (colon adenocarcinoma) were routinely cultured in DMEM supplemented with 10% fœtal bovine serum (FBS), 1% l-glutamine and 100 IU/mL penicillin/streptomycin. […] Rat SK2 cDNA cloned into pJA5 plasmid was a gift from Dr. Skolnik (university Langone Medical center, New York). Human SK3 cDNA cloned into Pipru vector was a king gift from Pr. Soriani (Université Côte d’Azur, CNRS, Inserm, Nice, France).
The human cell lines U87, MDA-MB231, or LS174 (10,000 cells per well) were treated with P01 peptide at different concentrations (25; 50; 100 and 200 μg/mL). After 24 h, the wells were washed with phosphate-buffered saline (PBS) and then the 3-(4,5-dimethylthiazol-2-yl)-2,5-diphenyltetrazolium bromide (MTT) (0.5 mg/mL) was added to the cells as previously described ([Kouba et al., 2020]). The crystals formed after the reduction of MTT by mitochondrial dehydrogenases were dissolved with dimethylsulfoxyde (DMSO). The quantification of live cells was achieved by measuring absorbance at 560 nm using a spectrophotometer (Thermo-Multiskan EX, Shanghai, China).

U87 glioblastoma cells [2] = assay: Cell adhesion assay, U87; format: cell-based, human; settings: n = 3; for inhibition of adhesion: 50 μg/mL P01, 2 h
Source text: as §1
Adhesion assays were performed as previously described by ([Sarray et al., 2007]). Glioblastoma U87 cells in suspension (10^6 cells/mL) were treated with 50 μg/mL of P01 and deposited on wells coated with purified extracellular matrix (ECM): Fg at 50 μg/mL; Fn at 10 μg/mL; Coll-I at 50 μg/mL; laminin (Lam) at 15 μg/mL or poly-L-lysine (PL) at 20 μg/mL for U87. MDA-MB231 and LS174 cells were also used in their adequate ECM: Fg and Coll-I respectively. They were incubated to adhere to the substrate for 2 h or 24 h at 37°C. After washing, attached cells were fixed, stained by 0.1% crystal violet, lysed with 1% SDS and quantified by measuring absorbance at 560 nm. The specific adhesion is obtained by subtracting the absorbance obtained in the absence of adhesion substrate (no specific control). To study the dose-response effect, different concentrations of P01 were used (25–100 μg/mL) and the IC50 value was determined.

α5 integrin = assay: U87 cell adhesion in presence of anti-integrin antibodies, α5; format: cell-based, human; settings: 50 μg/mL P01, 30 min pre-incubation, 2 h at 37°C, anti-α5 (1/200), n = 3
Description: (§2) To study the implication of integrins in the P01 peptide activity, adhesion assays using anti-integrin blocking antibodies: anti- α1β1 (1/200), anti- αvβ3 (1/200), anti- α5 (1/200) and anti- β3 (1/200) were performed as described above, except that cells were pretreated with the active peptide P01 at 50 μg/mL.

β3 integrin = assay: U87 cell adhesion in presence of anti-integrin antibodies, β3; format: cell-based, human; settings: 50 μg/mL P01, 30 min pre-incubation, 2 h at 37°C, anti-β3 (1/200), n = 3
Description: as §2

human SK3 channel = assay: Whole-cell patch clamp, human SK3 in HEK293T cells; format: cell-based; settings: human SK3 in HEK cells, currents recorded at 0 mV, pCa 6
Source text: as §1
HEK293T-hSK3 and HEK293-rSK2 cells were selected using the puromycin and neomycin resistance gene respectively. HEK cells were routinely cultured in DMEM supplemented with 5% FBS and 1% l-glutamine. All cell lines were maintained at 37°C in a humid atmosphere of 5% CO2 in air.
Experiments were performed with cells seeded into 35-mm Petri dishes at 3,000 to 6,000 cells per cm^2. All experiments were performed using the conventional whole-cell recording configuration of the patch-clamp technique ([Girault et al., 2011]). For HEK cells expressing SK2 or SK3 channels, voltages clamp ramp protocols were used with a duration of 2 s, with varying voltages - 100 to +100 mV, with a holding potential of 0 mV. […] Also, at 0 mV, the membrane potential currents will be recorded mainly K^+ currents and not Cl^− currents.

[3] = system: SK2 currents of U87 cells; assay: Whole-cell patch clamp, K+ currents of U87 cells; format: cell-based, human; settings: P01 125 pM vs Leidab-7 50 nM, ns between treatments
Source text: For U87 cells, whole-cell K^+ currents were generated by stepwise 8 mV depolarizing pulses from a constant holding potential of −90 up to +60 mV. The composition of extracellular solution is the same as that described above and the intracellular pipette solution is as follows in mM: K-glutamate 125, KCl 20, MgCl2 1, Mg-ATP 1, HEPES 10, CaCl2 0.7, EGTA 1, and pH was adjusted to 7.2 with KOH. The pCa is of 6.4 (10^−6.4 M of calcium concentration). Leidab-7 (Tocris, France) was used as reference peptide to selectively block SK2 currents in U87 cells.

Structure (SMILES): CC[C@H](C)[C@H](NC(=O)[C@@H]1CCCN1C(=O)[C@H](CCC(=O)O)NC(=O)[C@@H]1CSSC[C@@H]2NC(=O)[C@H](Cc3c[nH]cn3)NC(=O)[C@H](CCC(=O)O)NC(=O)[C@@H]3CCCN3C(=O)[C@@H]3CSSC[C@H](NC(=O)[C@H](CCCCN)NC(=O)[C@H](CC(=O)O)NC(=O)[C@H](CC(N)=O)NC(=O)[C@H](CC(=O)O)NC(=O)[C@H](CSSC[C@H](NC(=O)[C@H](CO)NC(=O)[C@@H](N)C(C)C)C(=O)N[C@@H](CCC(=O)O)C(=O)N[C@@H](CC(=O)O)C(=O)N3)NC(=O)[C@H](CCCCN)NC(=O)[C@H](C)NC(=O)[C@H](CCC(N)=O)NC(=O)[C@H](C)NC(=O)[C@H](CCCCN)NC(=O)[C@H](CCC(N)=O)NC(=O)[C@H]([C@@H](C)O)NC(=O)[C@H](CO)NC2=O)C(=O)N[C@@H](C(C)C)C(=O)N1)C(=O)O [P01] (H-VSCEDCPEHCSTQKAQAKCDNDKCVCEPI-OH; disulfide 3-19, 6-24, 10-26 (inferred); N-terminus and C-terminus assumed)
- cytotoxic effect (cell viability) (U87 glioblastoma cells [1]): did not have a cytotoxic effect
- effect on adhesion after 24 h, Fg and Fn (U87 glioblastoma cells [2]; Fg and Fn, 50 μg/mL P01, 24 h): stayed active on Fg and Fn
- inhibition of adhesion (U87 glioblastoma cells [2]; fibrinogen (Fg), 37°C): 41%
- IC50 (adhesion to Fg) (U87 glioblastoma cells [2]; fibrinogen, 25–100 μg/mL, 2 h): 48.86 µg/mL (≈ 15.4 µM)
- inhibition of adhesion (U87 glioblastoma cells [2]; fibronectin (Fn), 37°C): 38%
- IC50 (adhesion to Fn) (U87 glioblastoma cells [2]; fibronectin, 25–100 μg/mL, 2 h): 62.04 µg/mL (≈ 19.5 µM)
- inhibition of adhesion (U87 glioblastoma cells [2]; poly-L-lysine (Pl)): no inhibition could be observed
- effect on adhesion after 24 h, Pl (U87 glioblastoma cells [2]; poly-L-lysine (Pl), 50 μg/mL P01, 24 h): an inhibition effect on Pl appeared
- effect on adhesive function of α5 (α5 integrin): reduced the adhesive function
- effect on cell adhesion through β3 (β3 integrin): not able to alter cell adhesion
- effect on SK3 current (human SK3 channel): no effect
- current density-voltage relationship compared with Leidab-7 [3]: similar
